What was measured:
PC3 cells = test: Cell Proliferation Assay, PC3; format: cell-based; settings: Homo sapiens, PC-3; PC3, BME media lacking nonessential amino acids, 72 hours, ATPlite; read-out: Percent viability (EC50), Average
Procedure: Cells were seeded at 5000 cells per well (in 96-well plate) in BME media lacking nonessential amino acids+5% dialyzed serum. After 18 hours, DMSO or compound in 0.1% final concentration DMSO was added.
Percent viability (EC50) of A549 and PC3 cells was tested against certain exemplary compounds according to the above general procedures.

[1] = test system: lung carcinoma cell lines; test: Viability against a subset of lung carcinoma cell lines; format: cell-based; settings: certain of 6 cell lines, media lacking serine, FIG. 4C; read-out: IC50, inhibition of cell proliferation
Procedure: (§1) Viability effect of Example 1 against a subset of lung carcinoma cell lines was determined as follows. Cells were seeded at 1500 cells per well in 384-well plates in BME media, and compound was added in 0.1% DMSO 18 hours later. Viability was determined by ATPlite assay after 72 hours. (See FIG. 4C).

22RV1 = test: Cell line sensitivity (viability, ATPlite); format: cell-based; settings: Homo sapiens; 22RV1, Prostate; BME media, 72 hours; read-out: Sensitivity to Example 1 (IC50)
Procedure: as §1
(§2) Example 1 was tested against an expanded panel of cell lines according to the above procedure.

786-O = test: Cell line sensitivity (viability, ATPlite); format: cell-based; settings: Homo sapiens, 786-0, Kidney, BME media, 72 hours, read-out: Sensitivity to Example 1 (IC50)
Procedure: as §1, §2

ACHN = test: Cell line sensitivity (viability, ATPlite); format: cell-based; settings: Homo sapiens, Kidney, BME media, 72 hours, read-out: Sensitivity to Example 1 (IC50)
Procedure: as §1, §2

AsPC1 = test: Cell line sensitivity (viability, ATPlite); format: cell-based; settings: Homo sapiens; AsPC1, Pancreatic; BME media, 72 hours; read-out: Sensitivity to Example 1 (IC50)
Procedure: as §1, §2

Caki-1 = test: Cell line sensitivity (viability, ATPlite); format: cell-based; settings: Homo sapiens; Caki-1, Kidney; BME media, 72 hours; read-out: Sensitivity to Example 1 (IC50)
Procedure: as §1, §2

Detroit562 = test: Cell line sensitivity (viability, ATPlite); format: cell-based; settings: Homo sapiens, Detroit 562; Detroit562, Head/Neck; BME media, 72 hours; read-out: Sensitivity to Example 1 (IC50)
Procedure: as §1, §2

HCT116 = test: Cell line sensitivity (viability, ATPlite); format: cell-based; settings: Homo sapiens, HCT-116; HCT116, Colon; BME media, 72 hours; read-out: Sensitivity to Example 1 (IC50)
Procedure: as §1, §2

HCT15 = test: Cell line sensitivity (viability, ATPlite); format: cell-based; settings: Homo sapiens, HCT-15; HCT15, Colon; BME media, 72 hours; read-out: Sensitivity to Example 1 (IC50)
Procedure: as §1, §2

HepG2 = test: Cell line sensitivity (viability, ATPlite); format: cell-based; settings: Homo sapiens; HepG2, Liver; BME media, 72 hours; read-out: Sensitivity to Example 1 (IC50)
Procedure: as §1, §2

Hs766T = test: Cell line sensitivity (viability, ATPlite); format: cell-based; settings: Pancreatic, BME media, 72 hours, read-out: Sensitivity to Example 1 (IC50)
Procedure: as §1, §2

NCI-H1975 = test: Cell line sensitivity (viability, ATPlite); format: cell-based; settings: Homo sapiens; NCI-H1975, Lung; BME media, 72 hours; read-out: Sensitivity to Example 1 (IC50)
Procedure: as §1, §2

NCI-H460 = test: Cell line sensitivity (viability, ATPlite); format: cell-based; settings: Homo sapiens; NCI-H460, Lung; BME media, 72 hours; read-out: Sensitivity to Example 1 (IC50)
Procedure: as §1, §2

NCI-H647 = test: Cell line sensitivity (viability, ATPlite); format: cell-based; settings: Homo sapiens; NCI-H647, Lung; BME media, 72 hours; read-out: Sensitivity to Example 1 (IC50)
Procedure: as §1, §2

OVCAR-3 = test: Cell line sensitivity (viability, ATPlite); format: cell-based; settings: Homo sapiens; OVCAR-3, Ovarian; BME media, 72 hours; read-out: Sensitivity to Example 1 (IC50)
Procedure: as §1, §2

Panc-1 = test: Cell line sensitivity (viability, ATPlite); format: cell-based; settings: Homo sapiens; Panc-1, Pancreatic; BME media, 72 hours; read-out: Sensitivity to Example 1 (IC50)
Procedure: as §1, §2

SW620 = test: Cell line sensitivity (viability, ATPlite); format: cell-based; settings: Homo sapiens, SW-620; SW620, Colon; BME media, 72 hours; read-out: Sensitivity to Example 1 (IC50)
Procedure: as §1, §2

SW948 = test: Cell line sensitivity (viability, ATPlite); format: cell-based; settings: Homo sapiens; SW948, Colon; BME media, 72 hours; read-out: Sensitivity to Example 1 (IC50)
Procedure: as §1, §2

Skov3 = test: Cell line sensitivity (viability, ATPlite); format: cell-based; settings: Homo sapiens, SK-OV-3; Skov3, Ovarian; BME media, 72 hours; read-out: Sensitivity to Example 1 (IC50)
Procedure: as §1, §2

PKM2 [2] = biological target: T1, PKM2 (Homo sapiens, UniProt P14618); test: Cell-Based Pyruvate Kinase Activity Assay, A549; set-up: host or cells: A549 or NCI-H1299 lung cancer cells; settings: A549, 30 minutes with compound, n = 4; read-out: Cellular PKM2 activation EC50
T1 sequence (P14618 2-531 limits assumed): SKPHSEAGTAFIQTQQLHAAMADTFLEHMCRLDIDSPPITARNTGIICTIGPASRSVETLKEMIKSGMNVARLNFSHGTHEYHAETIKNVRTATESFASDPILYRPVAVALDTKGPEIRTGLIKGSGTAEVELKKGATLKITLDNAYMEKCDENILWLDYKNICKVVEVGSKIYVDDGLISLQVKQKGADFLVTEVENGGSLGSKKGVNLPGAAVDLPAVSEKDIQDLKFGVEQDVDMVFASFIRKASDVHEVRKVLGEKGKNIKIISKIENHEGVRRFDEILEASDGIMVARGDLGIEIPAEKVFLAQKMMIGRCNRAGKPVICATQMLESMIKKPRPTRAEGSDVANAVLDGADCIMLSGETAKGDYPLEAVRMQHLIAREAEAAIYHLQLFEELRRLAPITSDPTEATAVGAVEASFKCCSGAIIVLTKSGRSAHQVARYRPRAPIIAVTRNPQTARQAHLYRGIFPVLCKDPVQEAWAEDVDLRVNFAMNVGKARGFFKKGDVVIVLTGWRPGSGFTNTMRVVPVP
Procedure: (§3) Cell-Based Pyruvate Kinase Activity Assay
(§4) A549 or NCI-H1299 lung cancer cells were plated at 20,000 cells per well (96-well plate) in MEM media plus 10% FBS, with no additional glutamine or pyruvate. Following overnight incubation, cells were washed with PBS followed by 4 hour incubation in MEM media. Compounds were added to the cells in 1% final concentration DMSO. After 30 minutes, cells were lysed, and pyruvate kinase activity in lysates was determined by Pyruvate Kinase Activity Assay (BioVision, Milpitas, Calif.). Maximum velocity values were calculated from the kinetic data, and AC50 values were determined using Prism GraphPad Software (La Jolla, Calif.). Compound washout experiments were as described above, except after a 30 minute incubation with Example 244 (469 nM), the cells were washed with PBS followed by the addition of MEM media for the indicated time period, lysed and pyruvate kinase activity determined. Results are tabulated in Table 3 and presented graphically in FIGS. 6A and 6B.

PKM2 [3] = biological target: T1, PKM2; test: Cell-Based Pyruvate Kinase Activity Assay, NCI-H1299; set-up: host or cells: A549 or NCI-H1299 lung cancer cells; settings: NCI-H1299, 30 minutes with compound, n = 4; read-out: Cellular PKM2 activation EC50
Procedure: as §3, §4

O=C(c1cc(C(F)(F)F)n[nH]1)N(Cc1ccc(O)cc1F)CC1CCC1 [Example 1, N-(cyclobutylmethyl)-N-(2-fluoro-4-hydroxybenzyl)-3-(trifluoromethyl)-1H-pyrazole-5-carboxamide]
EC50 (PC3 cells): 0.155 µM
IC50 [1]: ≥ 0.1 µM
IC50 (22RV1): > 30 µM
IC50 (786-O): > 30 µM
IC50 (ACHN): 0.1 µM
IC50 (AsPC1): > 30 µM
IC50 (Caki-1): 0.08 µM
IC50 (Detroit562): 3 µM
IC50 (HCT116): 0.1 µM
IC50 (HCT15): > 30 µM
IC50 (HepG2): > 30 µM
IC50 (Hs766T): 0.3 µM
IC50 (NCI-H1975): 0.09 µM
IC50 (NCI-H460): 5 µM
IC50 (NCI-H647): > 30 µM
IC50 (OVCAR-3): 0.02 µM
IC50 (Panc-1): 0.014 µM
IC50 (SW620): 0.2 µM
IC50 (SW948): > 30 µM
IC50 (Skov3): 8 µM
EC50 (PKM2 [2]): 0.26 ± 0.12 µM
EC50 (PKM2 [3]): 0.22 ± 0.05 µM
